According to US8940774B2, “Tris-Quaternary Ammonium Salts and Methods for Modulating Neuronal Nicotinic Acetylcholine Receptors” (University of Kentucky Research Foundation, priority 2005, dated 2015):

How the values were obtained:
[1] = target: T1, Rat Striatal Nicotinic Receptors (Rattus norvegicus, UniProt P09483+P12390); test: Inhibition of [3H]Nicotine (NIC) binding assay, rat striatal membranes; details: % inhibition at 100 nM concentration of analog, 3 nM [3H]NIC
T1 construct: from tissue; host or cells: rat striatal membranes
Experimental: Striata from two rats were dissected, pooled, and homogenized with a Tekmar polytron in 10 vol of ice-cold modified Krebs-HEPES buffer (20 mM HEPES, 118 mM NaCl, 4.8 mM, KCl, 2.5 mM CaCl2, 1.2 mM MgSO4, adjusted to pH 7.5). The homogenates were incubated at 37° C. for 5 minutes and centrifuged at 15,000 g for 20 minutes. The pellet was resuspended in 10 volumes of ice-cold MilliQ water, incubated for 5 minutes at 37° C., and centrifuged at 15,000 g for 20 minutes. The second pellet was then resuspended in 10 volumes of fresh ice-cold 10% Krebs-HEPES buffer, incubated at 37° C., and centrifuged at 15,000 g for 20 minutes. The latter sequence of resuspension, incubation and centrifugation was repeated. The pellet was frozen under fresh 10% Krebs-HEPES buffer and stored at −40° C. until assay. Upon assay, the pellet was resuspended in Krebs-HEPES buffer, incubated at 37° C. for 5 minutes, and centrifuged at 15,000 g for 20 minutes. The final pellet was resuspended in 3.6 mL ice-cold MilliQ water which provided for approximately 200 μg protein per 100 μL aliquot. Competition assays were performed in duplicate in a final volume of 200 μL Krebs-HEPES buffer containing […] Tris buffer (pH 7.5 at 4° C.). Reactions were initiated by addition of 100 μL of membrane suspension to 3 nM [^3H]NIC (50 μL) and one of at least nine concentrations of analog (50 μL). After a 90 minute incubation at 4° C., reactions were terminated by dilution of the samples with 3 mL of ice-cold Krebs-HEPES buffer followed immediately by filtration through Whatman GF/B glass fiber filters (presoaked in 0.5% polyethyleneimine) using a Brandel Cell Harvester. Filters were rinsed three times with 3 mL of ice-cold Krebs-HEPES buffer, transferred to scintillation vials, and 5 mL scintillation cocktail (Research Products international Corp., Mt. Prospect, Ill.) added. Nonspecific binding determined in triplicate was defined as binding in the presence of 10 μM NIC. Binding parameters were determined using the weighted, least squares non-linear regression. The tris-quaternary ammonium salts were evaluated for their ability to displace [^3H]NIC binding from rat striatal membranes.
(§1) Data are % inhibition at 100 nM concentration of analog for at least 1-3 independent experiments. Specific binding in the [^3H]NIC binding assay is calculated at the difference between the total binding of [^3H]NIC and nonspecific binding in the presence of 10 μM cold nicotine. Specific binding for the [^3H]MLA binding assay is calculated as the difference between the total binding of 2.5 nM [^3H]MLA to the receptors alone and its nonspecific binding in the presence of 1 μM cold MLA. Analog-induced inhibition of nicotine-evoked [^3H]DA release is calculated as a percent of that in the absence of analog.

[2] = target: T2, α7-type neuronal nicotinic acetylcholine receptors (Rattus norvegicus, UniProt Q05941); test: Inhibition of [3H]Methyllycaconitine (MLA) binding assay, rat brain membranes; details: for inhibition at 0.1 µM: % inhibition at 100 nM concentration of analog, rat brain membranes, 2.5 nM [3H]MLA, read-out: Inhibition of [3H]MLA binding
T2 construct: from tissue; host or cells: rat brain membranes (whole brain without cortex, striatum and cerebellum)
Experimental: Rat brain was dissected into the whole brain tissue without cortex, striatum and cerebellum and was frozen in liquid nitrogen and stored at −70° C. until use. The brain tissue was homogenized with a Tekmar Polytron (setting 40) in 20 volumes of ice-cold hypotonic buffer (2 mM HEPES, 14.4 mM NaCl, 0.15 mM KCl, 0.2 mM CaCl2 and 0.1 mM MgSO4, pH=7.5). The homogenate was incubated at 37° C. for 10 minutes and centrifuged at 25,000 g for 15 minutes at […] The pellet was washed 3 times more by resuspension in 20 volumes of the same buffer and centrifugation at the above parameters. The final pellet was stored at −20° C. under 4.6 mL of the incubation buffer and was suspended just before the incubation with radioligand.
The binding of [^3H]MLA to probe α7-type neuronal nicotinic acetylcholine receptors was measured using a modification of the method of Davies at al., “Characterisation of the binding of [^3H]methyllycaconitine (MLA): a radioligand for labelling α7-type neuronal nicotinic acetylcholine receptors,” Neuropharmacology, 38, 679-690 (1999). [^3H]MLA (25.4 Ci/mmol) was purchased from Tocris Cookson Ltd., Bristol, U.K. Binding was performed in duplicate, in a final volume of 250 μL of the incubation medium, containing 20 mM HEPES, 144 mM NaCl, 1.5 mM KCl, 2 mM CaCl2, 1 mM MgSO4 and 0.05% BSA, pH=7.5. Reaction was initiated by the addition of 100 μL of membrane suspension to the samples containing a desired concentration of test compounds and […] [^3H]MLA (final concentration) and incubated for 2 hours it room temperature. Total binding was measured in the absence of unlabelled ligand, and nonspecific binding was determined by the presence of 1 μM unlabelled MLA. The binding reaction was terminated by dilution of samples with 3 mL of ice-cold incubation buffer followed by immediate filtration through glass fiber filters (S&S, grade #32, presoaked in 0.5% polyethylenimine) using a Brandel harvester system. Filters were rinsed three times with 3 mL of ice-cold buffer, transferred to scintillation vials and 4 mL of scintillation cocktail was added. Protein was measured using the Bradford dye-binding procedure with bovine serum albumin as the standard.
The tris-quaternary ammonium salts were evaluated for their ability to displace [^3H]MLA binding from rat brain membranes.
as §1

[3] = test system: NIC-evoked [3H]DA release from rat striatal slices; test: Nicotine-evoked [3H]dopamine release assay, superfused rat striatal slices; format: cell-based; details: 100 nM analog superfused 60 minutes prior to NIC (10 μM), percent of that in the absence of analog
Experimental: Rat striatal slices (500 μm thickness, 6-8 mg wet weight) were incubated for 30 minutes in Krebs buffer (118 mM NaCl, 4.7 mM KCl, 1.2 mM MgCl2, 1.0 mM NaH2PO4, 1.3 mM CaCl2, 11.1 mM glucose, 25 mM NaHCO3, 0.11 mM L-ascorbic acid and 0.004 mM disodium EDTA; pH 7.4, and saturated with 95% O2/5% CO2) in a metabolic shaker at 34° C. Slices were rinsed with 15 mL of fresh buffer and incubated for an additional 30 minutes in fresh buffer containing 0.1 μM [^3H]dopamine (DA; 6 slices/3 mL). Subsequently, slices were rinsed with 15 mL of fresh buffer and transferred to a glass superfusion chamber. Slices were superfused (1.0 mL/min) for 60 minutes with Krebs buffer containing nomifensine (10 μM) and pargyline (10 μM) and maintained at 34° C., pH 7.4 with continual aeration (95% O2/5% CO2). Two five minute samples (5 mL each) were collected to determine basal outflow of [^3H]DA. Analogs were added to the superfusion buffer after the collection of the second sample and remained in the buffer until 12 consecutive five minute samples were collected. Subsequently, S-(−)-nicotine (10 μM) was added to the buffer and an additional 12 consecutive five minute samples were collected. At the end of the experiment, each slice was solubilized and the [^3H] content of the tissue determined.
Radioactivity in the superfusate and tissue samples were determined by liquid scintillation spectroscopy. Fractional release for tritium collected in each sample was divided by the total tritium present at the time of sample collection and was expressed as a percentage of total tritium. Basal [^3H] outflow was calculated from the average of the tritium collected in the two five-minute samples just before addition of the analog. The sum of the increase in collected tritium resulting from either exposure to the test compound or exposure to S-(−)-nicotine in the absence cod presence of the test compound equaled total [^3H] overflow. [^3H] Overflow was calculated by subtracting the [^3H] outflow during an equivalent period of prestimulation from the values in samples collected during and after drug exposure. Inasmuch as the radiolabelled compounds were not separated and identified, the tritium in the superfusate is referred to as either [^3H] outflow or [^3H] overflow, rather than [^3H]DA. [^3H] Overflow primarily represents [^3H]DA in the presence of nomifesine and pargyline in the superfusion buffer. […]
Analogs were also evaluated for their ability to inhibit NIC evoked [^3H]DA release. In these experiments, the striatal slices were superfused for 60 minutes with 100 nM concentration of the analogs prior to NIC (10 μM) exposure. Antagonist activity was evaluated by comparing the NIC-evoked [^3H] overflow in the absence and presence of the analogs. The relative order of potency of the analogs for inhibition of NIC-evoked [^3H]DA release from rat striatal slices is illustrated in Table 1.
as §1

T1 sequence (P09483 31-630): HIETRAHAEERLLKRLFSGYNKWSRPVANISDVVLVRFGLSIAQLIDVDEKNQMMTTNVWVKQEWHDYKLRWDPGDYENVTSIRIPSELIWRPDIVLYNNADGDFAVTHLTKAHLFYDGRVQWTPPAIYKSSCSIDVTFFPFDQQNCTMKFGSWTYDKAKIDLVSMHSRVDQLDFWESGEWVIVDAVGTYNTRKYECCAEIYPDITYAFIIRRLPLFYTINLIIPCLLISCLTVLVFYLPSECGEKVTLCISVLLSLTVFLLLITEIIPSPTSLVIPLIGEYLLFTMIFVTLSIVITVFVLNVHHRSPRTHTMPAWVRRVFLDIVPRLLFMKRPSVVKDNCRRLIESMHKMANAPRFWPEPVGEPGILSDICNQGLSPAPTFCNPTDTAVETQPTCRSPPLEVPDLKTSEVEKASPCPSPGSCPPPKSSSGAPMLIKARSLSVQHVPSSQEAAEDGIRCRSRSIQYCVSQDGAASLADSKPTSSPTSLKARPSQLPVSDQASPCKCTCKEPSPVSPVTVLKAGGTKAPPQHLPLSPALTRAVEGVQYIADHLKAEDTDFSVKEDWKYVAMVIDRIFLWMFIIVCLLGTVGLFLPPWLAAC
T1 sequence (P12390 25-500): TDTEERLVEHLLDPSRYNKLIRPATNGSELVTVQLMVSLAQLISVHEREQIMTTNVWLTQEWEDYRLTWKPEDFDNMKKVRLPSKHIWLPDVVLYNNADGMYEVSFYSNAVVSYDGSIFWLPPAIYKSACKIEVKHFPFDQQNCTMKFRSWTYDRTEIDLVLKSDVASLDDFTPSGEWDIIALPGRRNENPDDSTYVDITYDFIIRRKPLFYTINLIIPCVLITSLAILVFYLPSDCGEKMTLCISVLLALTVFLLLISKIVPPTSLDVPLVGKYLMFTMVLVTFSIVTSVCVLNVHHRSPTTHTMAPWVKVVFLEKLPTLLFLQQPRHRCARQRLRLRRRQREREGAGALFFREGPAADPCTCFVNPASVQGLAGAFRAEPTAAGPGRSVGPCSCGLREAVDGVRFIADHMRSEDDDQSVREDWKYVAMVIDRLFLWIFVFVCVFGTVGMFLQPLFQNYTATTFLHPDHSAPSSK
T2 sequence (Q05941 23-502): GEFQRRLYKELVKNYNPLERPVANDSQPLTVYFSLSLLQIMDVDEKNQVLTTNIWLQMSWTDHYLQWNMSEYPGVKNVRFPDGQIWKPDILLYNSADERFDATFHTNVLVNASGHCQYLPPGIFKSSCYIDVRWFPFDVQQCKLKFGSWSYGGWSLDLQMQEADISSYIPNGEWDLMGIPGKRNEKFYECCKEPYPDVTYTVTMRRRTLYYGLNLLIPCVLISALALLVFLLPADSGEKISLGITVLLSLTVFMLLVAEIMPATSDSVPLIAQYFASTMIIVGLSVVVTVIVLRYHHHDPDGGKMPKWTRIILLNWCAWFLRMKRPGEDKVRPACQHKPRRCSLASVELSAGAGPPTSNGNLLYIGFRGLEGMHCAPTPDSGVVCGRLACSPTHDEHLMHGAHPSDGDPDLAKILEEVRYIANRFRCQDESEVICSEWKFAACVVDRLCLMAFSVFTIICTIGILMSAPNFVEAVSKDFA

Molecule | inhibition at 0.1 µM [1] [%] | inhibition at 0.1 µM [2] [%] | inhibition at 0.1 µM [3] [%] | Ki ([2]; read-out: K1 value, displacement of [3H]MLA binding) [nM]
Cc1cc(C)c[n+](CCCC#Cc2cc(C#CCCC[n+]3cc(C)cc(C)c3)cc(C#CCCC[n+]3cc(C)cc(C)c3)c2)c1 [GZ553A, 1,3,5-tris-[5-(3,5-lutidinium)-pent-1-ynyl]-benzene tribromide] | 8.9 ± 2.9 | 0 | 31 | 
C(#Cc1cc(C#CCCC[n+]2ccc3ccccc3c2)cc(C#CCCC[n+]2ccc3ccccc3c2)c1)CCC[n+]1ccc2ccccc2c1 [GZ552B, 1,3,5-tris-[5-(2-isoquinolinium)-pent-1-ynyl]-benzene tribromide] | 9.2 ± 5 | 4.5 ± 2.6 | 49 | 
Cc1ccc[n+](CCCCCc2cc(CCCCC[n+]3cccc(C)c3)cc(CCCCC[n+]3cccc(C)c3)c2)c1 [GZ555A, 1,3,5-tris-[5-(3-picolinium)-pentyl]-benzene tribromide] | 14 ± 6.1 | 1.2 ± 1.2 | 42 | 
Cc1ccc[n+](CCCC#Cc2cc(C#CCCC[n+]3cccc(C)c3)cc(C#CCCC[n+]3cccc(C)c3)c2)c1 [GZ550A, 1,3,5-tris-[5-(3-picolinium)-pent-1-ynyl]-benzene tribromide] | 10 ± 1.9 | 0 | 46 | 
Cc1cc[n+](CCCCCc2cc(CCCCC[n+]3ccc(C)cc3)cc(CCCCC[n+]3ccc(C)cc3)c2)cc1 [GZ555C, 1,3,5-tris-[5-(4-picolinium)-pentyl]-benzene tribromide] | 6 ± 3.4 | 0 | 37 ± 17 | 
Cc1cccc[n+]1CCCCCc1cc(CCCCC[n+]2ccccc2C)cc(CCCCC[n+]2ccccc2C)c1 [GZ555B, 1,3,5-tris-[5-(2-picolinium)-pentyl]-benzene tribromide] | 8.6 ± 7.2 | 0 | 25 | 
Cc1cc[n+](CCCC#Cc2cc(C#CCCC[n+]3ccc(C)c(C)c3)cc(C#CCCC[n+]3ccc(C)c(C)c3)c2)cc1C [GZ553B, 1,3,5-tris-[5-(3,4-lutidinium)-pent-1-ynyl]-benzene tribromide] | 4 ± 1.4 | 1.8 ± 1.8 | 0 | 
C(#Cc1cc(C#CCCC[n+]2cccc3ccccc32)cc(C#CCCC[n+]2cccc3ccccc32)c1)CCC[n+]1cccc2ccccc21 [GZ552A, 1,3,5-tris-[5-(1-quinolinium)-pent-1-ynyl]-benzene tribromide] | 7 ± 3.8 | 21 ± 6 | 72 | 
CCCCc1ccc[n+](CCCCCc2cc(CCCCC[n+]3cccc(CCCC)c3)cc(CCCCC[n+]3cccc(CCCC)c3)c2)c1 [GZ558B, 1,3,5-tris-[5-(3-butyl-pyridinium)-pentyl]-benzene tribromide] | 6.2 ± 4 | 4.4 ± 3.3 | 68 ± 14 | 
C(#Cc1cc(C#CCCC[n+]2cccc(-c3ccccc3)c2)cc(C#CCCC[n+]2cccc(-c3ccccc3)c2)c1)CCC[n+]1cccc(-c2ccccc2)c1 [GZ550B, 1,3,5-tris-[5-(3-phenyl-pyridinium)-pent-1-ynyl]-benzene tribromide] | 15 ± 0.9 | 39 ± 2.2 | 49 | 
α-bungarotoxin [reference compound] |  |  |  | 28.6 ± 5.4
Cc1cc[n+](CCCC#Cc2cc(C#CCCC[n+]3ccc(C)cc3)cc(C#CCCC[n+]3ccc(C)cc3)c2)cc1 [GZ554B, 1,3,5-tris-[5-(4-picolinium)-pent-1-ynyl]-benzene tribromide] | 21 ± 4.5 | 0 | 34 | 
Cc1cc(C)c[n+](CCCCCc2cc(CCCCC[n+]3cc(C)cc(C)c3)cc(CCCCC[n+]3cc(C)cc(C)c3)c2)c1 [GZ557A, 1,3,5-tris-[5-(3,5-lutidinium)-pentyl]-benzene tribromide] | 11 ± 2.9 | 6.5 ± 3.6 | 39 ± 18 | 
Cc1cc[n+](CCCCCc2cc(CCCCC[n+]3ccc(C)c(C)c3)cc(CCCCC[n+]3ccc(C)c(C)c3)c2)cc1C [GZ557B, 1,3,5-tris-[5-(3,4-lutidinium)-pentyl]-benzene tribromide] | 9.3 ± 4.1 | 0.2 ± 0.2 | 50 ± 21 | 
